Patent US20240327764A1, “Manufacturing a Distilled Spirit Based Functional Ingredient” (priority 2022, published 2024)

Tests used:
MAO A = target: T1, MAO A (Homo sapiens, UniProt P21397); assay: MAO A inhibitory activity assay (% inhibition); type: biochemical; conditions: terpene added at 0.5% (v/v) to Don Julio Añejo (40% ABV) versus 40% ethanol
T1 sequence (P21397 1-527): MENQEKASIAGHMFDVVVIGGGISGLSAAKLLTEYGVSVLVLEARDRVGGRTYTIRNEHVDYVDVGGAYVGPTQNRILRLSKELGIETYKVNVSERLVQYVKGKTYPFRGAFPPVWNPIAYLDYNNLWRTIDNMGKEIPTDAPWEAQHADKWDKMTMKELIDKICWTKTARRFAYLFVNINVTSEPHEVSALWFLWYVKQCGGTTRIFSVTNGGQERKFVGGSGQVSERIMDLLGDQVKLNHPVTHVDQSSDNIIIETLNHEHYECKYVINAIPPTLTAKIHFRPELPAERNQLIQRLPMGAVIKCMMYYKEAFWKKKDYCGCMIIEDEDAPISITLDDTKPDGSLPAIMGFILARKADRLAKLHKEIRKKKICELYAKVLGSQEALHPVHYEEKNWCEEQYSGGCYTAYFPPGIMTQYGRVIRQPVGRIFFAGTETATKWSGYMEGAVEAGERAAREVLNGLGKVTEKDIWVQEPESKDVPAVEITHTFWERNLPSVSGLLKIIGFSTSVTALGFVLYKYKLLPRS
Text: (§1) U.S. […] The contents of this document are incorporated herein by reference, but briefly, methods that include reverse osmosis and low-pressure evaporation to provide retentates with significant concentrations of these inhibitors are described. In addition, details of assay methods for monoamine oxidase activity (and therefore inhibition thereof) and for ethanol content are provided.

MAO B = target: T2, MAO B (Homo sapiens, UniProt P27338); assay: MAO B inhibitory activity assay (% inhibition); type: biochemical; conditions: terpene added at 0.5% (v/v) to Don Julio Añejo (40% ABV) versus 40% ethanol
T2 sequence (P27338 1-520): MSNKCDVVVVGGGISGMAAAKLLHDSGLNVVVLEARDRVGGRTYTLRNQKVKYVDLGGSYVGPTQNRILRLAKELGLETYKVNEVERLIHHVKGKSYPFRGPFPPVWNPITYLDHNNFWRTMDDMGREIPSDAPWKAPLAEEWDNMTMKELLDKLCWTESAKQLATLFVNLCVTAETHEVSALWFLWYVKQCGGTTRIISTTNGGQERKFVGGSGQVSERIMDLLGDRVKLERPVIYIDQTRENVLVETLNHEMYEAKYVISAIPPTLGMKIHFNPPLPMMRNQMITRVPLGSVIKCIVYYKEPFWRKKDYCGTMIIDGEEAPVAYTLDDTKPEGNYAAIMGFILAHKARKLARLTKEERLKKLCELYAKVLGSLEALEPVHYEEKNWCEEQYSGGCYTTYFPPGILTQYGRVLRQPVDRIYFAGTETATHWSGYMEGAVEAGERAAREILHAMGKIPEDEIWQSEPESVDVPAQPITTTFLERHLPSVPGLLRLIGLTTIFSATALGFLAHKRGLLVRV
Text: as §1

C=C(C)[C@@H]1CCC2=CCC[C@@H](C)[C@]2(C)C1 [valencene]
Δ % Inhibition MAO A (DJA + terpene) − (ETOH + terpene) (MAO A): 9% | Δ % Inhibition MAO B (DJA + terpene) − (ETOH + terpene) (MAO B): 20%
